21 compounds from patent US20240199558A1, “2,4,6-TRISUBSTITUTED 1,3,5-TRIAZINES AS MODULATORS OF CX3CR1” (ASTRAZENECA AB, priority 2022, published 2024) can be followed below.

Each structure is given as a SMILES string. pIC50: −log10 of the molar value. Bounds are passed on as bounds.

The target of this assay is CX3CR1 (Homo sapiens (Human), UniProt P49238). In words: hCX3CR1 [3H]-AZD8797 competitive binding assay (filter). The conditions noted are these: CHO-hCX3CR1 membranes, 2 nM [3H]-AZD8797. How it is done: hCX3CR1 [^3H]-AZD8797 Competitive Binding Assay (Filter)
CX3CR1, sequence (P49238 whole entry): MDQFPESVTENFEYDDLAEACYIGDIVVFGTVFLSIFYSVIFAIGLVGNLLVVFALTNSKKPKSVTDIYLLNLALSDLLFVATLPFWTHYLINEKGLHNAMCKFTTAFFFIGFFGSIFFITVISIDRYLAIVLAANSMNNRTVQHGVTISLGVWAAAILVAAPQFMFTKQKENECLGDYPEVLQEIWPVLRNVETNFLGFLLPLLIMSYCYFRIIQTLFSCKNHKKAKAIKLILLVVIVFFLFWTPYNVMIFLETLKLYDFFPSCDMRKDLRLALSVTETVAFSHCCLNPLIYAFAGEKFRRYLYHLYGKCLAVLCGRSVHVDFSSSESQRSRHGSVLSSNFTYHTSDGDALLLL
CHO-hCX3CR1 membranes (9 μg per well) together with 2 nM [^3H]-AZD8797 and different concentrations of competitor compound were incubated in 25 mM HEPES (pH 7.4), 10 mM MgCl2, 1 mM CaCl2) and 0.5% BSA in a Corning polystyrene flat-bottom 96-well plate. The plate was incubated for 2 h at room temperature before free radioligand was separated from bound by vacuum filtration on to a Multiscreen HTS+HiFlow FB (Millipore) filter plate, using a Biomek FX (Beckman Coulter). The filter plate was washed in ice-cold 25 mM HEPES (pH 7.4), 5 mM MgCl2, 1 mM CaCl2) and 500 mM NaCl and dried at 50° C. for 1 h. Scintillation cocktail, Optiphase Supermix (PerkinElmer) was added to each well and the radioactivity was measured using a MicroBeta Trilux reader (PerkinElmer). The DMSO concentration was held constant at 1%.
Usually pIC50 stands for the negative decadic logarithm of the IC50, by convention in mol/L. High values mean a low IC50, low ones a high IC50. As for `CC(=O)N(C)c1ccc(C(C)Cc2nc(N[C@@H](CO)CC(C)C)nc(NS(C)(=O)=O)n2)cc1` (stereo partly drawn) [Example 73, N-(4-(1-(4-(((R)-1-Hydroxy-4-methylpentan-2-yl)amino)-6-(methylsulfonamido)-1,3,5-triazin-2-yl)propan-2-yl)phenyl)-N-methylacetamide], the pIC50 was 6.20.

Consider `CC(C)C[C@H](CO)Nc1nc(CC(C)c2cccc(F)c2)nc(NS(C)(=O)=O)n1` (stereo partly drawn) [Example 58, N-(4-(2-(3-Fluorophenyl)propyl)-6-(((R)-1-hydroxy-4-methylpentan-2-yl)amino)-1,3,5-triazin-2-yl)methanesulfonamide], for which the pIC50 is 6.98.

`COc1ccc(C(C)Cc2nc(N[C@@H](CO)CC(C)C)nc(NS(C)(=O)=O)n2)cc1OC` (stereo partly drawn) [Example 96] gave a pIC50 of 6.83.

Regarding `CC(C)C[C@H](CO)Nc1nc(C[C@@H](C)c2ccnc(F)c2)nc(NS(C)(=O)=O)n1` (single isomer, unassigned) [Example 91, N-(4-((R*)-2-(2-Fluoropyridin-4-yl)propyl)-6-(((R)-1-hydroxy-4-methylpentan-2-yl)amino)-1,3,5-triazin-2-yl)methanesulfonamide], the pIC50 was 7.47.

`CC(C)C[C@H](CO)Nc1nc(CC(C)c2ccc(N=S(C)(C)=O)cc2)nc(NS(C)(=O)=O)n1` (stereo partly drawn) [Example 63, N-(4-(2-(4-((Dimethyl(oxo)-λ^6-sulfaneylidene)amino)phenyl)propyl)-6-(((R)-1-hydroxy-4-methylpentan-2-yl)amino)-1,3,5-triazin-2-yl)methanesulfonamide] showed a pIC50 of 6.94.

Compound `CC(C)C[C@H](CO)Nc1nc(CC(C)c2ccc3c(=O)n(C)cnc3c2)nc(NS(C)(=O)=O)n1` (stereo partly drawn) [Example 126, N-(4-(((R)-1-Hydroxy-4-methylpentan-2-yl)amino)-6-(2-(3-methyl-4-oxo-3,4-dihydroquinazolin-7-yl)propyl)-1,3,5-triazin-2-yl)methanesulfonamide] gave a pIC50 of 6.59.

`COc1ccc(C(C)Cc2nc(N[C@@H](CO)CC(C)C)nc(NS(C)(=O)=O)n2)c2cccnc12` (stereo partly drawn) [Example 97, N-(4-(((R)-1-Hydroxy-4-methylpentan-2-yl)amino)-6-(2-(8-methoxyquinolin-5-yl)propyl)-1,3,5-triazin-2-yl)methanesulfonamide] gave a pIC50 of 7.05.

`CC(C)C[C@H](CO)Nc1nc(CC(C)c2cccc(F)c2O)nc(NS(C)(=O)=O)n1` (stereo partly drawn) [Example 135, N-(4-(2-(3-Fluoro-2-hydroxyphenyl)propyl)-6-(((R)-1-hydroxy-4-methylpentan-2-yl)amino)-1,3,5-triazin-2-yl)methanesulfonamide] showed a pIC50 of 6.98.

Regarding `CC(C)C[C@H](CO)Nc1nc(C[C@@H](C)c2cc(F)c(F)cc2F)nc(NS(C)(=O)=O)n1` (single isomer, unassigned) [Example 36, N-(4-(((R)-1-Hydroxy-4-methylpentan-2-yl)amino)-6-((R*)-2-(2,4,5-trifluorophenyl)propyl)-1,3,5-triazin-2-yl)methanesulfonamide], the pIC50 is 6.30.

In the case of `CC(C)C[C@H](CO)Nc1nc(C[C@@H](C)c2cc(F)ccc2F)nc(NS(C)(=O)=O)n1` (single isomer, unassigned) [Example 24, N-(4-((R*)-2-(2,5-Difluorophenyl)propyl)-6-(((R)-1-hydroxy-4-methylpentan-2-yl)amino)-1,3,5-triazin-2-yl)methanesulfonamide], the negative-log IC50 (pIC50) was 7.11.

`Cc1c2ccc(C(C)Cc3nc(N[C@@H](CO)CC(C)C)nc(NS(C)(=O)=O)n3)cc2nn1C` (stereo partly drawn) [Example 106, N-(4-(2-(2,3-Dimethyl-2H-indazol-6-yl)propyl)-6-(((R)-1-hydroxy-4-methylpentan-2-yl)amino)-1,3,5-triazin-2-yl)methanesulfonamide]: the pIC50 was 7.62.

Turning to `CCOc1ccc([C@@H](C)Cc2nc(N[C@@H](CO)CC(C)C)nc(NS(C)(=O)=O)n2)cn1` (single isomer, unassigned) [Example 28, N-(4-((S*)-2-(6-Ethoxypyridin-3-yl)propyl)-6-(((R)-1-hydroxy-4-methylpentan-2-yl)amino)-1,3,5-triazin-2-yl)methanesulfonamide], the pIC50 is 5.56.

Compound `CC(C)C[C@H](CO)Nc1nc(CC(C)c2cccc(C3(O)CC3)c2)nc(NS(C)(=O)=O)n1` (stereo partly drawn) [Example 158, N-(4-(((R)-1-Hydroxy-4-methylpentan-2-yl)amino)-6-(2-(3-(1-hydroxycyclopropyl)phenyl)propyl)-1,3,5-triazin-2-yl)methanesulfonamide] gave a pIC50 of 5.57.

Turning to `Cc1ncc(C(C)Cc2nc(N[C@@H](CO)CC(C)C)nc(NS(C)(=O)=O)n2)cc1N` (stereo partly drawn) [Example 131, N-(4-(2-(5-Amino-6-methylpyridin-3-yl)propyl)-6-(((R)-1-hydroxy-4-methylpentan-2-yl)amino)-1,3,5-triazin-2-yl)methanesulfonamide], the pIC50 was 6.19.

`CC(C)C[C@H](CO)Nc1nc(C[C@@H](C)c2ccc(N)nc2)nc(NS(C)(=O)=O)n1` (single isomer, unassigned) [Example 51, N-(4-((R*)-2-(6-Aminopyridin-3-yl)propyl)-6-(((R)-1-hydroxy-4-methylpentan-2-yl)amino)-1,3,5-triazin-2-yl)methanesulfonamide] showed a pIC50 of 7.52.

Compound `CC(C)C[C@H](CO)Nc1nc(C[C@@H](C)c2c(F)cc(Cl)cc2F)nc(NS(C)(=O)=O)n1` (single isomer, unassigned) [Example 44, N-(4-((R*)-2-(4-Chloro-2,6-difluorophenyl)propyl)-6-(((R)-1-hydroxy-4-methylpentan-2-yl)amino)-1,3,5-triazin-2-yl)methanesulfonamide] showed a pIC50 of 6.76.

With `COc1cc(C)c([C@@H](C)Cc2nc(N[C@@H](CO)CC(C)C)nc(NS(C)(=O)=O)n2)cn1` (single isomer, unassigned) [Example 14, N-(4-(((R)-1-Hydroxy-4-methylpentan-2-yl)amino)-6-((S*)-2-(6-methoxy-4-methylpyridin-3-yl)propyl)-1,3,5-triazin-2-yl)methanesulfonamide], the pIC50 is less than 5.00.

The compound `COc1cccc(C(C)Cc2nc(N[C@@H](CO)CC(C)C)nc(NS(C)(=O)=O)n2)c1F` (stereo partly drawn) [Example 99, N-(4-(2-(2-Fluoro-3-methoxyphenyl)propyl)-6-(((R)-1-hydroxy-4-methylpentan-2-yl)amino)-1,3,5-triazin-2-yl)methanesulfonamide] had a pIC50 of 7.11.

`CNC(=O)c1ccc(C(C)Cc2nc(N[C@@H](CO)CC(C)C)nc(NS(C)(=O)=O)n2)cc1F` (stereo partly drawn) [Example 120, 2-Fluoro-4-(1-(4-(((R)-1-hydroxy-4-methylpentan-2-yl)amino)-6-(methylsulfonamido)-1,3,5-triazin-2-yl)propan-2-yl)-N-methylbenzamide] gave a pIC50 of 6.64.

`CC(C)C[C@H](CO)Nc1nc(CC(C)c2ccc3ncn(C)c(=O)c3c2)nc(NS(C)(=O)=O)n1` (stereo partly drawn) [Example 124, N-(4-(((R)-1-Hydroxy-4-methylpentan-2-yl)amino)-6-(2-(3-methyl-4-oxo-3,4-dihydroquinazolin-6-yl)propyl)-1,3,5-triazin-2-yl)methanesulfonamide] showed a pIC50 of 6.90.

As to `Cc1ccc(C(C)Cc2nc(N[C@@H](CO)CC(C)C)nc(NS(C)(=O)=O)n2)cc1C` (stereo partly drawn) [Example 70, N-(4-(2-(3,4-Dimethylphenyl)propyl)-6-(((R)-1-hydroxy-4-methylpentan-2-yl)amino)-1,3,5-triazin-2-yl)methanesulfonamide], the pIC50 is 6.53.
